This is an account of results in patent publication US20050131051A1, “2-3-disubstituted quinuclidiness as modulators of monoamine transporters and theraperutic and diagnostic methods based thereon” (priority 2000, published 2005).

Experiment [1] has as its target T1, serotonin transporter (Rattus norvegicus, UniProt P31652).
T1 construct: using synaptosomes prepared from rat midbrain and parietal/occipital cortex, respectively; from tissue; host or cells: rat midbrain synaptosomes
The experiment is described as follows: Synaptosomal uptake of [3H]5-HT. The experiment is classed as biochemical. The protocol: (§1) IC50 values were determined by a computer assisted, iterative fit to a four-parameter sigmoidal equation (ALLFIT). These values were then converted to Ki values according to the Cheng-Prusoff equation assuming classical competitive inhibition. Preincubation of the drug and synaptosomes at 37° C. for 30 min was used to approximate equilibrium conditions as necessary to satisfy the requirements of the Cheng-Prusoff equation.
(§2) The effect of candidate compounds in antagonizing dopamine high-affinity uptake was determined using a method previously employed. For [^3H]DA uptake, dissected rat striata were homogenized with a Teflon-glass pestle in ice-cold 0.32 M sucrose and centrifuged for 10 mm at 1000×g. The supernatant was centrifuged at 17,500×g for 20 mm. This P2 synaptosomal pellet was resuspended in 30 volumes of ice-cold modified KRH buffer. An aliquot of the synaptosomal suspension was preincubated with the buffer and drug for 30 mm at 37° C., and uptake initiated by the addition of [^3H]dopamine (5 nM, final conc.). After 5 mm, uptake was terminated by adding 5 ml of cold buffer containing glucosamine as a substitute for NaCl and then finally by rapid vacuum filtration over GF-C glass fiber filters, followed by washing with two 5 ml volumes of ice-cold, sodium-free buffer. Radioactivity retained on the filters was determined by liquid scintillation spectrometry. […] Also, specific uptake of [^3H]5-HT and [^3H]NE were defined in the presence of 10 uM fluoxetine and 1 uM desipramine, respectively.

The target in experiment [2] is T2, dopamine transporter (DAT) (Rattus norvegicus, UniProt P23977).
T2 construct: P2 membrane pellets were prepared by differential centrifugation from rat striatum; from tissue; host or cells: rat striatum (P2 membrane pellet / P2 synaptosomes)
T2 sequence (P23977 whole entry): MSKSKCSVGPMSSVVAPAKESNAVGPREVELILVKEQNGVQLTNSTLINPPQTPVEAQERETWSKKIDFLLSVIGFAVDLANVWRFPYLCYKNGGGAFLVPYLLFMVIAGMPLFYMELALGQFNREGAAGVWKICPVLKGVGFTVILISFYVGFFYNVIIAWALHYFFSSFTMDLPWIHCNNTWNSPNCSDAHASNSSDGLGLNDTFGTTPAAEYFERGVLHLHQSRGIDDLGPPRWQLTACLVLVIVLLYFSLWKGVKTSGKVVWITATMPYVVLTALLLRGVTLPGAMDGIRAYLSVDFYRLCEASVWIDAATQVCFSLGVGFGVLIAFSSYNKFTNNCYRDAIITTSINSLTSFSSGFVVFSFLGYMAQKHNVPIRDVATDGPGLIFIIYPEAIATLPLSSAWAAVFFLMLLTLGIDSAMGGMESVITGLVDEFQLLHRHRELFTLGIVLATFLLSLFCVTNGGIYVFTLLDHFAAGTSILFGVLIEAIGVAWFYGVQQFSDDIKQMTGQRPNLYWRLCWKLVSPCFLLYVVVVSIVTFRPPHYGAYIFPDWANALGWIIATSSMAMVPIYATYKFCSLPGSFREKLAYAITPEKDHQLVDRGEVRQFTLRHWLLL
The experiment is described as follows: [3H]mazindol binding assay. The settings on record: for Ki: rat striatum membranes, mean ± standard error or range of 2-3 experiments. The protocol:
Binding assays were conducted as previously described. Briefly conventional P2 membrane pellets were prepared by differential centrifugation from rat striatum. The P2 pellet was resuspended in Krebs-Ringer-HEPES (KRH) buffer consisting of (in mM): NaCl (125), KCl (4.8), MgSO4 (1.2), CaCl2 (1.3), KH2PO4 (1.2), glucose (5.6), nialamide (0.01), and HEPES (25) (pH 7.4) and centrifuged again. Finally, the pellet was resuspended in 30 volumes of buffer, pelleted at 15,000×g and frozen at −80° C. until used. The striatal homogenates were thawed by resuspension in the buffer described above at 75-125 µg protein/ml and incubated with [^3H]mazindol, with or without competing drugs, for 60 min in a 4° C. cold room. […] The bound and free [^3H]mazindol were separated by rapid vacuum filtration over Whatman GF/C filters, using a Brandel M24R cell harvester, followed by two washes with 5 ml of cold buffer. Radioactivity on the filters was then extracted by allowing to sit over night with 5 ml of scintillant. The vials were vortexed and counted. IC50 values were determined using the computer program LIGAND.
For binding assays, caudate nuclei were homogenized using a polytron in 0.32 M sucrose and centrifuged for 10 mm at 1000×g. The supernatant was resuspended in cold sucrose and centrifuged at 17,500×g for 20 mm. The pellet was resuspended in Krebs-Ringer-HEPES (KRH) buffer consisting of (in mM): NaCl (125), KCl (4.8), MgSO4 (1.2), CaCl2 (1.3), KH2PO4(1.2), glucose (5.6), nialamide (0.01), and HEPES (25) (pH 7.4) and centrifuged again. Finally, the pellet was resuspended in 30 volumes of buffer, pelleted at 15,000×g and frozen at −80° C. until used. The striatal homogenates were thawed by resuspension in the buffer described above at 75-125 μg protein/ml and incubated with [^3H]mazindol, with or without competing drugs, for 60 mm in a 4° C. cold room. […] The bound and free [^3H]mazindol were separated by rapid vacuum filtration over Whatman GF/C filters, using a Brandel M24R cell harvester, followed by two washes with 5 ml of cold buffer. Radioactivity on the filters was then extracted by allowing to sit over night with 5 ml of scintillant. The vials were vortexed and counted. IC50 values were determined using the computer program LIGAND.

Experiment [3] addresses T3, norepinephrine transporter (Rattus norvegicus, UniProt Q63380).
T3 construct: using synaptosomes prepared from rat midbrain and parietal/occipital cortex, respectively; from tissue; host or cells: rat parietal/occipital cortex synaptosomes
As to the kind of experiment: Synaptosomal uptake of [3H]NE. Format: biochemical. The method, then:
as §1, §2

The target of experiment [4] is T2, dopamine transporter (DAT). As to the kind of experiment: Synaptosomal uptake of [3H]DA (inhibition of DA reuptake). The experiment is classed as biochemical. The method, then: as §2, with “uptake, freshly” for “uptake,”, “min” for “mm”, “min.” for “mm.”, “min,” for “mm,”, “It is identical to that calculated by subtracting the mean” for “Also, specific uptake”, “identical tubes incubated at 0° C.” for “[^3H]5-HT and [^3H]NE were defined in the presence of 10 uM fluoxetine and 1 uM desipramine, respectively.”
as §1, §2

Experiment [5] addresses DAT (Homo sapiens, UniProt Q01959). To be noted: cited from earlier work.
The mark [6] stands for this setting: read-out: Ki (nM) [3H] Mazindol Binding.
[7] abbreviates: Ki (nM) DA Reuptake, rat striatal synaptosomes, mean ± standard error or range of 2-3 experiments.
[8] abbreviates: Ki (nM) SER, synaptosomes from rat midbrain, mean ± standard error or range of 2-3 experiments.
[9] abbreviates: Ki (nM) NE, synaptosomes from rat parietal/occipital cortex, mean ± standard error or range of 2-3 experiments.
[10] abbreviates: binding affinity and DA reuptake not distinguished in the sentence.

Where two headings read alike, the source gives them in different places.

T1 sequence (P31652 whole entry): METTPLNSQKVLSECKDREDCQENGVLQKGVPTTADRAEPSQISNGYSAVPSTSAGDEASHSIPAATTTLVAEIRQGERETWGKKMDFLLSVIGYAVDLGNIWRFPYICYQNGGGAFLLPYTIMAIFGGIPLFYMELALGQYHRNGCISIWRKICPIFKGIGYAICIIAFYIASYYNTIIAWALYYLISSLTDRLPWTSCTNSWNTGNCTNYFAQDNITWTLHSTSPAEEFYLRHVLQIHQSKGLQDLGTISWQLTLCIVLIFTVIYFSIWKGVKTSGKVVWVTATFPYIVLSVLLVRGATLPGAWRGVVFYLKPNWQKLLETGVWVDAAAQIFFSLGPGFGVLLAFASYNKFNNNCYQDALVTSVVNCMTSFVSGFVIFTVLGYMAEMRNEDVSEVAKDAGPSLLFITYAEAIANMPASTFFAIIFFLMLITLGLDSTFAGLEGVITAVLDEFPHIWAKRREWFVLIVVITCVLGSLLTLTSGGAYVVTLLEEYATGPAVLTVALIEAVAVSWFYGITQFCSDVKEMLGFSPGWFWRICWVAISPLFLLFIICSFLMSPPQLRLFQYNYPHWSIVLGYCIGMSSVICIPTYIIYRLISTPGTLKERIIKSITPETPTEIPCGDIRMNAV
T3 sequence (Q63380 1-617): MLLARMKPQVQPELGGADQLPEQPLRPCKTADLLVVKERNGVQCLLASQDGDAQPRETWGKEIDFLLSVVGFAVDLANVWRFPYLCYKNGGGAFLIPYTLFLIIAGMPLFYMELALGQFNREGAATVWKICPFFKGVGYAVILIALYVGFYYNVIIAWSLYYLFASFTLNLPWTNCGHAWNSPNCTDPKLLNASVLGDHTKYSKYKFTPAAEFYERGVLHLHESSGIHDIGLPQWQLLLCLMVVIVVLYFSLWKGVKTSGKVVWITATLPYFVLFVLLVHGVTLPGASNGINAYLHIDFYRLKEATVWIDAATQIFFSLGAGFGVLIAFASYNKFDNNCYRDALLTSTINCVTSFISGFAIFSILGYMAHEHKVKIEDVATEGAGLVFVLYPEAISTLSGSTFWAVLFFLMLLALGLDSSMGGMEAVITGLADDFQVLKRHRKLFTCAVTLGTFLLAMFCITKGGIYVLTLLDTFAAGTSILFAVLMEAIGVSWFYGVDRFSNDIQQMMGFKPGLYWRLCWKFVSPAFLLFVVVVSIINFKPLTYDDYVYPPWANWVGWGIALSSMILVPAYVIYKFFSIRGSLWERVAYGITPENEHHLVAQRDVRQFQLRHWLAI
Sequence of DAT (Q01959 whole entry, species assumed): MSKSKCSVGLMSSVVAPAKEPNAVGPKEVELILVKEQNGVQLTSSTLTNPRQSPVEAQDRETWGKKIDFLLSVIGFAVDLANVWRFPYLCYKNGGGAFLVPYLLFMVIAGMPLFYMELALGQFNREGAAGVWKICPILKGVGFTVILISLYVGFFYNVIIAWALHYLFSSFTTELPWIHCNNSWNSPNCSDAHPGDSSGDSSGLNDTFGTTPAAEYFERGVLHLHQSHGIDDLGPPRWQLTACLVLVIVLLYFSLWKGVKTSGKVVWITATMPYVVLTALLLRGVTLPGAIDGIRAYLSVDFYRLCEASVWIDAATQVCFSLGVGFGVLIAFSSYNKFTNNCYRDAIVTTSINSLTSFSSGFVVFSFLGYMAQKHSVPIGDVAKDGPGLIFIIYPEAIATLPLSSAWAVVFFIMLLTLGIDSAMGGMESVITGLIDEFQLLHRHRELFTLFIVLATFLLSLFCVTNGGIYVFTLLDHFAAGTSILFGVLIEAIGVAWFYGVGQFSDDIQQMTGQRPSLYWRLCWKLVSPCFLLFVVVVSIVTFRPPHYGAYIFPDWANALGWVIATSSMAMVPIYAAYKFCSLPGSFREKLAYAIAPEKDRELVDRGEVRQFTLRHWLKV

Regarding `CCCCC1C(c2ccccc2)C2CCN1CC2` (racemic) [(±)-12, 2-Butyl-3-phenylquinuclidine], the inhibition constant (Ki) (usually a measure of affinity in units of concentration, obtained from inhibition or displacement) was found to be 655 ± 21 nM in experiment [1], 210 nM in experiment [2] (setting [6]), 136 ± 11 nM in experiment [3] and 237 nM in experiment [4] (setting [7]). In experiment [2], the “times more potent than cocaine in binding affinity” value is on record as “as potent as cocaine”. Further, the “fold improvement over the lead compound (3) in binding affinity” value (“fold improvement … in binding affinity” for short) in experiment [2] (ratio of Ki values) was found to be 31 fold. For the same compound, the “times more potent than cocaine in inhibition of DA reuptake” value in experiment [4] is “as potent as cocaine”. Also, the “fold improvement over the lead compound (3) in inhibition of DA reuptake” value (“fold improvement … in inhibition of DA reuptake” for short) in experiment [4] (ratio of Ki values) amounted to 32 fold.
Turning to `CCCCC1C(c2ccc(C)cc2)C2CCN1CC2` (racemic) [(±)-13, 2-Butyl-3-(4-methylphenyl)quinuclidine], the Ki was found to be 77 ± 7 nM in experiment [1] (setting [8]), 20 nM in experiment [2] (Ki (nM) [3H] Mazindol Binding), 62 ± 5 nM in experiment [3] (setting [9]) and 49 nM in experiment [4] (setting [7]). In experiment [2] (ratio of Ki values), the “fold improvement over 13 (so in the source) in binding activity” value is 11 fold. Moreover, the “fold improvement … in binding affinity” value in experiment [2] (ratio of Ki values) is 365 fold. In addition, the “fold improvement over 13 (so in the source) in uptake activity” value in experiment [4] (ratio of Ki values) is 5 fold. For the same compound, the “fold improvement … in inhibition of DA reuptake” value in experiment [4] (ratio of Ki values) is listed as 181 fold.
`CCCCC1C(c2ccc(C)cc2)C2CCN1CC2` (single isomer, unassigned; (+)) [(+)-13, 2-Butyl-3-(4-methylphenyl)quinuclidine]: the Ki in experiment [1] worked out at 508 ± 22 nM; in experiment [2] (setting [6]) it was 343 nM; in experiment [3] it was 164 ± 47 nM; in experiment [4] (setting [7]), 354 nM.
On to `CCCCC1C(c2ccc(C)cc2)C2CCN1CC2` (single isomer, unassigned; (-)) [(−)-13, 2-Butyl-3-(4-methylphenyl)quinuclidine], for which the inhibitory constant (Ki) came to 26 ± 3 nM in experiment [1] (setting [8]), 14 nM in experiment [2] (Ki (nM) [3H] Mazindol Binding), 15 ± 3 nM in experiment [3] (setting [9]) and 32 nM in experiment [4] (setting [7]). Moreover, the “times more potent than cocaine in binding affinity” value in experiment [2] was 17 times. Besides, the “fold improvement … in binding affinity” value in experiment [2] (ratio of Ki values) was determined as 519 fold. In addition, in experiment [4], the “times more potent than cocaine in inhibition of DA reuptake” value was found to be 9 times. The “fold more potent than (±)-13” value in experiment [4] (setting [10]) was “approximately 2 fold”. Besides, the “fold more potent than its enantiomer (+)-13” value in experiment [4] (setting [10]) is 11 fold. Also, the “fold improvement … in inhibition of DA reuptake” value in experiment [4] (ratio of Ki values) came out at 278 fold.
Turning to `COC(=O)[C@H]1[C@@H](c2ccccc2)C[C@@H]2CC[C@H]1N2C` [2 (WIN 35065-2), WIN 35065-2], the “binding affinity at the DAT site, times better than cocaine” value in experiment [5] is listed as 4 times.
Consider `C=CCCC1C(=O)C2CCN1CC2` (centres unmarked) [Compound 7, 2-But-3-enylquinuclidin-3-one], for which the inhibition constant Ki in experiment [4] (setting [7]) is above 10000 nM. Moreover, in experiment [4] (at 10 µM), the “measurable activity in inhibition of DA reuptake” value is “did not show any measurable activity”.
In turn, `C=CCCC1N2CCC(CC2)C1(O)c1ccccc1` (centres unmarked) [Compound 8, 2-But-3-enyl-3-phenylquinuclidin-3-ol] gave a Ki in experiment [4] (Ki value (text, refers to Table 1 DA reuptake)) of 31200 nM. Moreover, in experiment [4] (ratio of Ki values, DA reuptake), the “fold less potent than 12” value came out at 131 fold.
